Data reported in ChEMBL document CHEMBL3407453, “LEADOPT: an automatic tool for structure-based lead optimization, and its application in structural optimizations of VEGFR2 and SYK inhibitors” (Eur J Med Chem, 2015).
Calls of active or inactive are those of the source. The rule behind the calls is not given here.

Key:
[1] = tested on: HUVEC; assay: Antiangiogenic activity in HUVEC cells assessed as inhibition of cell migration at 5 uM after 18 hrs by wound healing assay; assay type: functional, cell-based; conditions: Homo sapiens
[2] = molecular target: T1, Vascular endothelial growth factor receptor 2 (Homo sapiens, UniProt P35968); assay: Inhibition of VEGFR2-mediated ERK1/2 phosphorylation in VEGF-stimulated HUVEC cells at 0.01 to 10 uM after 2 hrs by Western blot analysis; assay type: cell-based
[3] = tested on: HUVEC; assay: Antiangiogenic activity in HUVEC cells assessed as inhibition of cell migration after 18 hrs by wound healing assay; assay type: functional, cell-based; conditions: Homo sapiens
[4] = molecular target: T1, Vascular endothelial growth factor receptor 2; conditions: HUVEC, at 0.01 to 10 µM
Description: Inhibition of VEGFR2 phosphorylation in VEGF-stimulated HUVEC cells at 0.01 to 10 uM after 2 hrs by Western blot analysis

[5] = molecular target: T1, Vascular endothelial growth factor receptor 2; assay: Inhibition of VEGFR2 (unknown origin) by [33P]radiolabeled method
[6] = molecular target: T2, Tyrosine-protein kinase SYK (Homo sapiens, UniProt P43405); assay: Inhibition of SYK (unknown origin)
[7] = molecular target: T2, Tyrosine-protein kinase SYK; assay: Inhibition of SYK-mediated FLT3 phosphorylation in human MV4-11 cells at 0.01 to 1 uM after 6 hrs by Western blot analysis; assay type: cell-based
[8] = tested on: MV4-11; assay: Cytotoxicity against human MV4-11 cells assessed as reduction in cell viability after 72 hrs by MTT assay; assay type: functional, cell-based; conditions: MV4-11, 72 h
[9] = tested on: Ramos; assay: Cytotoxicity against human Ramos cells assessed as reduction in cell viability after 72 hrs by MTT assay; assay type: functional, cell-based
[10] = molecular target: T2, Tyrosine-protein kinase SYK; assay: Inhibition of SYK-mediated ERK1/2 phosphorylation in human MV4-11 cells at 0.01 to 1 uM after 6 hrs by Western blot analysis; assay type: cell-based

T1 sequence (P35968 whole entry): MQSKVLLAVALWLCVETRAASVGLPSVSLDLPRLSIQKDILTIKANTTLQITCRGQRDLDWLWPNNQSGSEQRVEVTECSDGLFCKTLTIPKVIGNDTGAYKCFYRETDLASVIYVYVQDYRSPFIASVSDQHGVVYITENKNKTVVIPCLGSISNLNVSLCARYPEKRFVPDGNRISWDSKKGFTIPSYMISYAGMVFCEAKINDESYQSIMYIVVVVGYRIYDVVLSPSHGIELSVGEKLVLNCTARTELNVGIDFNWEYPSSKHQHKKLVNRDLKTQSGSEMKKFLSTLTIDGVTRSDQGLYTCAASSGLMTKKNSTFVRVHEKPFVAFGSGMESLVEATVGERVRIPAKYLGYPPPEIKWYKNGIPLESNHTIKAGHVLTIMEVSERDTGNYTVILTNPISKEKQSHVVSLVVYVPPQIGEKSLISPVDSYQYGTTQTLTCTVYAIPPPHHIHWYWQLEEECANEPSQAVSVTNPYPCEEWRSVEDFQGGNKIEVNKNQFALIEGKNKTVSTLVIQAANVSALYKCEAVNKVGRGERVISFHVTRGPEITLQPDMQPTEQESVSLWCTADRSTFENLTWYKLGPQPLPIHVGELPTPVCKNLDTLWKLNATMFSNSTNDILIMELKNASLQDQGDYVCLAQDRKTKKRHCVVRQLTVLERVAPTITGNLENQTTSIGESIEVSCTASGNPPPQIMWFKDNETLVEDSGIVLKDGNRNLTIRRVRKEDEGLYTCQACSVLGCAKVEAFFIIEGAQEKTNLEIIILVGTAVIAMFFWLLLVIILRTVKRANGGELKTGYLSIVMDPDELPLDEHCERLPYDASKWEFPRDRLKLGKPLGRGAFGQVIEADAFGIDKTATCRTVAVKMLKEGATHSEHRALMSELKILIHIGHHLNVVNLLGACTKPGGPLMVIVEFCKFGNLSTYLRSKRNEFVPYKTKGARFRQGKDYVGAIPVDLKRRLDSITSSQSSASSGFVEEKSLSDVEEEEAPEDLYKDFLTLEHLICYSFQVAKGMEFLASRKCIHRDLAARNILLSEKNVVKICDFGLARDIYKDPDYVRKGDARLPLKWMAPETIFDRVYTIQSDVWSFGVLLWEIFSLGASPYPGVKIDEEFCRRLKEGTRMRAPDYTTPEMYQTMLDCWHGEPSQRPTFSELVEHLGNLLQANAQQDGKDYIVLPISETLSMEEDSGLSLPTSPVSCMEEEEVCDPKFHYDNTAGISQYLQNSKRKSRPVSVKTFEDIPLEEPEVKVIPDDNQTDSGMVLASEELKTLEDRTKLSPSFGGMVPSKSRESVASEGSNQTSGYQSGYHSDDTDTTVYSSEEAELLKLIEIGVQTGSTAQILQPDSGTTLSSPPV

Q: Which results are given for `CNC(=O)c1cc(Oc2ccc(NC(=O)Nc3cc(C(C)(C)C)on3)cc2)ccn1`?
A: inhibition [1]: Active; inhibition [2]: Active; inhibition [3]: Dose-dependent effect; inhibition [4]: Active; IC50 [5]: 17 nM

Q: With `Nc1nccc(Oc2ccc(NC(=O)Nc3ccc(Cl)c(C(F)(F)F)c3)cc2)n1` as the compound, how does the IC50 [5] read?
A: The IC50 was 23 nM.

Q: With `O=C(Nc1ccc(Oc2ccnc3ccccc23)cc1)Nc1ccc(Cl)c(C(F)(F)F)c1` as the compound, how does the IC50 [5] read?
A: The IC50 was 119 nM.

Q: With `CNC(=O)c1cc(Oc2ccc(NC(=O)Nc3ccc(Cl)c(C(F)(F)F)c3)cc2)ccn1` as the compound, how does the inhibition [1] read?
A: The inhibition was “Active”.

Q: `COc1cc(Nc2ncc(F)c(Nc3cc(Cl)ccc3C(N)=O)n2)cc(OC)c1OC` was tested. Which IC50 [6] did it give?
A: Its IC50 is 326 nM.

Q: How did the IC50 [5] turn out when `Nc1nccc(Oc2ccc(NC(=O)Nc3nc4ccccc4s3)cc2)n1` was run?
A: Its IC50 is 120 nM.

Q: Which IC50 [6] does the source give for `COc1cc(Nc2ncc(F)c(Nc3ccc4nc(C)cc(N)c4c3)n2)cc(OC)c1OC` here?
A: The IC50 was 2960 nM.

Q: Which IC50 [6] does the source give for `COc1cc(Nc2ncc(F)c(Nc3cccc(C(N)=O)c3)n2)cc(OC)c1OC` here?
A: The IC50 was 1130 nM.

Q: `CNC(=O)c1nccc(Oc2ccc(NC(=O)Nc3nc4ccccc4s3)cc2)n1` was tested. Which IC50 [5] did it give?
A: The IC50 was 36 nM.

Q: `Cc1cc(N)c2cc(Nc3nc(Nc4ccc(N5CCN(C)CC5)cc4)ncc3F)ccc2n1` was tested. Which IC50 [6] did it give?
A: Its IC50 is 13 nM.

Q: And the inhibition [7]?
A: The inhibition was “Active”.

Q: What about the IC50 [8] of the same compound?
A: The IC50 was 3 nM.

Q: And the IC50 [9]?
A: The IC50 was 510 nM.

Q: What about the inhibition [10] of the same compound?
A: Its inhibition is “Active”.

Q: With `N#Cc1cc(Oc2ccc(NC(=O)Nc3ccc(Cl)c(C(F)(F)F)c3)cc2)ccn1` as the compound, how does the IC50 [5] read?
A: Its IC50 is 214 nM.
